According to US20210244686A1, “Novel Systems And Methods For The Therapeutic Use of Cannabinoids or Cannabinoid Analogs to Increase The Lipid Order of Cholesterol Containing Cell Membranes” (The Regents of the University of Colorado a body corporate, priority 2018, published 2021):

Test system: SK-N-BE(2) cells
Assay: RNAseq transcriptomics of CBD response
Format: cell-based, human
Details: 20 μM CBD
Procedure: In order to compare and contrast proteomic derived mechanistic components of the CBD response to that of transcriptomic components, the present inventors additionally performed RNAseq analysis of SK-N-BE(2) cells exposed to vehicle or 20 μM CBD at the time-points indicated in FIG. 1C. 5,643 differentially expressed genes were identified in the CBD response gene with a FDR<1%, which was further reduced to a list of 139 genes with an LFC>=1. […] While most of these annotations are supported by either the transcriptome or the proteome, dysregulation of cholesterol metabolism is supported by both. […] As a result of the agreement between proteomic and transcriptomic data, we focused our study thereafter on determining the role of cholesterol homeostasis in the CBD drug response.
Sequencing was performed on seven consecutive lanes. Median read counts per lane were ˜49,000 with a CV of ˜7%. Starting with 228 fastq files, each lane set was concatenated per condition. Using Trimmomtic-0.36, base pairs were trimmed if they dropped below a PHRED score of 15 within a sliding window of 4 bp. Remaining reads shorter than 35 base pairs were removed. Illumina adapter sequences were also clipped using Trimmomatic. […] Read alignment was accomplished using Tophat-2.0.13 and Cufflinks/Cuffdiff 2.2.1 was used for FPKM quantitation and differential expression analysis per time point.

C=C(C)[C@@H]1CCC(C)=C[C@H]1c1c(O)cc(CCCCC)cc1O [CBD, cannabidiol]
HMG-CR expression: transcriptional activation
